Results on 35 molecules are retold here after US20160024083A1, “COMPOUNDS AND METHODS FOR TREATING CANCERS” (HEALTH RESEARCH, INC., priority 2013, published 2016).

Molecules are shown by their SMILES. pIC50: −log10 of the molar value. Where two headings read alike, the source gives them in different places. Bounds are passed on as bounds.

Holding throughout (format): cell-based
Experiment [1] deals with CWR22R. Kind of experiment: cells. Here is the method:
FIG. 21. Toxicity of PLA1055 to CWR22R cells in vitro depending on time of incubation. PLA1055 was added to CWR22R in full range of concentrations for the periods of time shown on the right. After that drug containing media were changed for drug free and survival of cells was detected at 72 hours after start of treatment using Alamar Blue assay (Promega).
(§1) This example provides a table (below) of the compounds of the present disclosure and their activity towards four different cell lines (i.e., CWR22R, HeLa, PC3, and MDA-MB-231). The IC50 for inhibition of growth is divided into 4 categories: A<1 μM, B 1-5 μM, C 5-20 μM, D>20 μM.
(§2) All compounds were tested for toxicity using 4 cells lines, target cells—CWR22R and non-target cells, Hela, PC3 and MDA-MB-231 (FIGS. 1A-F).
LC50 data of in vitro 72 hours cytotoxicity assay are included in this table for comparison.
An in vitro experiment was run to detect the concentration of PLA1055 needed to kill all tumor cells in vitro (LC90) during different periods of time (30 minutes-72 hours, FIG. 21)).

For experiment [2], the system named is Hela. Kind of experiment: Inhibition of growth / toxicity in non-target Hela cells. Here is the method:
as §1, §2

For experiment [3], the system named is PC3. Kind of experiment: Inhibition of growth / toxicity in non-target PC3 cells. The conditions noted are these: Homo sapiens, PC-3. Here is the method: as §1, §2
The test system of experiment [4] is MDA-MB-231. Kind of experiment: Inhibition of growth / toxicity in non-target MDA-MB-231 cells. Here is the method:
as §1, §2

The mark [5] stands for this setting: Homo sapiens, 22Rv1, CWR22R, read-out: IC50 for inhibition of growth.
Setting [6] is: CWR22R, read-out: IC50 for inhibition of growth.

One may read the pIC50 as the negative decadic logarithm of the IC50, by convention in mol/L. As for `CCCn1c2ccc(C(C)=O)cc2c2ncccc21` [Compound 5-13], the pIC50 is 5.30 to 6.00 in experiment [1] (setting [5]); less than 4.70 in experiment [2] (Homo sapiens, HeLa); less than 4.70 in experiment [3]; less than 4.70 in experiment [4] (Homo sapiens).
For the molecule `CCCn1c2ccccc2c2cc(-c3ccc(C)s3)ccc21` [Compound 2-2], the pIC50 in experiment [1] (setting [5]) was less than 4.70; in experiment [2] (Homo sapiens, HeLa), less than 4.70; in experiment [3] it was less than 4.70; in experiment [4] (Homo sapiens) it was less than 4.70.
Regarding `FCCCn1c2ccccc2c2cc(-c3nnco3)ccc21` [Compound 9-1, 9-(3-Fluoropropyl)-3-[1,3,4]oxadiazol-2-yl-carbazole], the pIC50 is greater than 6.00 in experiment [1] (setting [5]); less than 4.70 in experiment [2] (Homo sapiens, HeLa); less than 4.70 in experiment [3]; less than 4.70 in experiment [4] (Homo sapiens).
For `CCCn1c2ccccc2c2cc(-c3cocn3)ccc21` [Compound 12-1, 3-Oxazol-4-yl-9-propyl-9H-carbazole], the pIC50 is less than 4.70 in experiment [1] (setting [5]); less than 4.70 in experiment [2] (Homo sapiens, HeLa); less than 4.70 in experiment [3]; less than 4.70 in experiment [4] (Homo sapiens).
On to `CCCn1c2ccc(C(C)=O)cc2c2c(C(N)=O)cccc21` [Compound 19-1, 6-Acetyl-9-propyl-9H-carbazole-4-carboxamide], for which the pIC50 in experiment [1] (setting [5]) was 5.30 to 6.00; in experiment [2] (Homo sapiens, HeLa), less than 4.70; in experiment [3], less than 4.70; in experiment [4] (Homo sapiens), less than 4.70.
Turning to `CCCn1c2ccccc2c2cc(C(C)=O)ncc21` [Compound 17-3], the pIC50 was 4.70 to 5.30 in experiment [1] (setting [5]); less than 4.70 in experiment [2] (Homo sapiens, HeLa); less than 4.70 in experiment [3]; less than 4.70 in experiment [4] (Homo sapiens).
As for `CCCn1c2ccc(OC)cc2c2cc(C(C)=O)ccc21` [Compound 21-1, 1-(6-Methoxy-9-propyl-9H-carbazol-3-yl)-ethanone], the negative logarithm of the IC50 (pIC50) in experiment [1] (setting [5]) was 4.70 to 5.30; in experiment [2] (Homo sapiens, HeLa), less than 4.70; in experiment [3] it was less than 4.70; in experiment [4] (Homo sapiens) it was less than 4.70.
On to `N#Cc1cnc2c(c1)c1ccccc1n2CCCF` [Compound 25-3], for which the pIC50 in experiment [1] (setting [5]) was 5.30 to 6.00; in experiment [2] (Homo sapiens, HeLa), less than 4.70; in experiment [3], less than 4.70; in experiment [4] (Homo sapiens), less than 4.70.
In the case of `CCCn1c2ccccc2c2cc(-c3cnco3)ccc21` [Compound 11-2], the pIC50 in experiment [1] (setting [5]) is greater than 6.00; in experiment [2] (Homo sapiens, HeLa), less than 4.70; in experiment [3] it was less than 4.70; in experiment [4] (Homo sapiens) it was less than 4.70.
Turning to `CCCn1c2ccccc2c2cc(-c3cccs3)ccc21` [Compound 2-1, 9-Propyl-3-thiophen-2-yl-9H-carbazole], the pIC50 in experiment [1] (setting [5]) was greater than 6.00; in experiment [2] (Homo sapiens, HeLa), less than 4.70; in experiment [3] it was less than 4.70; in experiment [4] (Homo sapiens) it was less than 4.70.
For `CCCn1c2ccccc2c2cc(C(C)=O)cnc21` [Compound 5-10], the pIC50 in experiment [1] (setting [5]) was greater than 6.00; in experiment [2] (Homo sapiens, HeLa), less than 4.70; in experiment [3] it was less than 4.70; in experiment [4] (Homo sapiens) it was less than 4.70.
For the molecule `FCCCn1c2ccccc2c2cc(-c3nnco3)cnc21` [Compound 8-4], the pIC50 in experiment [1] (setting [5]) is greater than 6.00; in experiment [2] (Homo sapiens, HeLa), less than 4.70; in experiment [3], less than 4.70; in experiment [4] (Homo sapiens), less than 4.70.
`FCCCn1c2ccc(-c3nnco3)cc2c2ncccc21` [Compound 10-1, 5-(3-Fluoropropyl)-8-[1,3,4]oxadiazol-2-yl-5H-pyrido[3,2-b]indole]: the pIC50 in experiment [1] (setting [6]) was less than 4.70; in experiment [2] (Homo sapiens, HeLa) it was less than 4.70; in experiment [4] (Homo sapiens) it was less than 4.70.
With `CCCn1c2ccc(Br)cc2c2cc(C(C)=O)ccc21` [Compound 20-1, 1-(6-Bromo-9-propyl-9H-carbazol-3-yl)-ethanone], the pIC50 is 4.70 to 5.30 in experiment [1] (setting [5]); less than 4.70 in experiment [2] (Homo sapiens, HeLa); less than 4.70 in experiment [3]; less than 4.70 in experiment [4] (Homo sapiens).
As for `FCCCn1c2ccccc2c2cc(-c3ccno3)ccc21` [Compound 13-2], the negative logarithm of the IC50 (pIC50) in experiment [1] (setting [5]) is greater than 6.00; in experiment [2] (Homo sapiens, HeLa) it was less than 4.70; in experiment [3], less than 4.70; in experiment [4] (Homo sapiens), less than 4.70.
With `CCCn1c2ccccc2c2cc(C3=NCCO3)ccc21` [Compound 15-2], the pIC50 was less than 4.70 in experiment [1] (setting [5]); less than 4.70 in experiment [2] (Homo sapiens, HeLa); less than 4.70 in experiment [3]; less than 4.70 in experiment [4] (Homo sapiens).
With `CCCn1c2ccc(C(C)=O)cc2c2c(C#N)cccc21` [Compound 25-1, 6-Acetyl-9-propyl-9H-carbazole-4-carbonitrile], the pIC50 is 5.30 to 6.00 in experiment [1] (setting [5]); less than 4.70 in experiment [2] (Homo sapiens, HeLa); less than 4.70 in experiment [3]; less than 4.70 in experiment [4] (Homo sapiens).
As for `CCCn1c2ccccc2c2cc(-c3nnco3)ccc21` [Compound 8-1, 3-[1,3,4]Oxadiazol-2-yl-9-propyl-9H-carbazole], the pIC50 is greater than 6.00 in experiment [1] (setting [5]); less than 4.70 in experiment [2] (Homo sapiens, HeLa); less than 4.70 in experiment [3]; less than 4.70 in experiment [4] (Homo sapiens).
Take `CCCn1c2ccccc2c2cc(-c3nccs3)ccc21` [Compound 4-2]: the pIC50 in experiment [1] (setting [5]) is less than 4.70; in experiment [2] (Homo sapiens, HeLa), less than 4.70; in experiment [3], less than 4.70; in experiment [4] (Homo sapiens) it was less than 4.70.
Regarding `CCCn1c2ccc(Cl)cc2c2cc(C(C)=O)ccc21` [Compound 20-2], the pIC50 was less than 4.70 in experiment [1] (setting [5]); less than 4.70 in experiment [2] (Homo sapiens, HeLa); less than 4.70 in experiment [3]; less than 4.70 in experiment [4] (Homo sapiens).
In the case of `CCCn1c2ccc(C(C)=O)cc2c2cc(C(N)=O)ccc21` [Compound 23-1, 6-Acetyl-9-propyl-9H-carbazole-3-carboxylic acid amide], the pIC50 in experiment [1] (setting [5]) is 4.70 to 5.30; in experiment [2] (Homo sapiens, HeLa), less than 4.70; in experiment [3], less than 4.70; in experiment [4] (Homo sapiens), 4.70 to 5.30.
As to `CCCn1c2ccccc2c2cc(-c3ncco3)ccc21` [Compound 4-1, 3-Oxazol-2-yl-9-propyl-9H-carbazole], the pIC50 in experiment [1] (setting [5]) was 5.30 to 6.00; in experiment [2] (Homo sapiens, HeLa), less than 4.70; in experiment [3], less than 4.70; in experiment [4] (Homo sapiens) it was less than 4.70.
As to `CCCn1c2ccccc2c2cc(Br)ccc21` [Compound 1-1, 3-Bromo-9-propyl-9H-carbazole], the pIC50 in experiment [1] (Homo sapiens, 22Rv1, read-out: IC50 for inhibition of growth, CWR22R) is 5.30 to 6.00; in experiment [2] (Homo sapiens, HeLa), less than 4.70; in experiment [3], less than 4.70; in experiment [4] (Homo sapiens) it was less than 4.70.
As for `CCn1c2ccccc2c2cc(-c3ccccn3)ccc21` [Compound 4-4], the pIC50 in experiment [1] (setting [5]) was 4.70 to 5.30; in experiment [2] (Homo sapiens, HeLa), less than 4.70; in experiment [3], less than 4.70; in experiment [4] (Homo sapiens), less than 4.70.
As to `CCCn1c2ccccc2c2cc(-c3ccccn3)ccc21` [Compound 4-5], the pIC50 is 5.30 to 6.00 in experiment [1] (setting [5]); less than 4.70 in experiment [2] (Homo sapiens, HeLa); less than 4.70 in experiment [3]; less than 4.70 in experiment [4] (Homo sapiens).
`CC(=O)c1ccc2c(c1)c1c(C(N)=O)cccc1n2CCCF` [Compound 5-8]: the pIC50 in experiment [1] (setting [5]) is greater than 6.00; in experiment [2] (Homo sapiens, HeLa), less than 4.70; in experiment [3], less than 4.70; in experiment [4] (Homo sapiens), less than 4.70.
Consider `FCCCn1c2ccccc2c2cc(-n3cncn3)ccc21` [Compound 14-1, 9-(3-Fluoropropyl)-3-[1,2,4]triazol-1-yl-9H-carbazole], for which the pIC50 was greater than 6.00 in experiment [1] (setting [5]); less than 4.70 in experiment [2] (Homo sapiens, HeLa); less than 4.70 in experiment [3]; less than 4.70 in experiment [4] (Homo sapiens).
For the molecule `CC(=O)c1ccc2c(c1)c1ccccc1n2CCCF` [Compound 1-2], the pIC50 was greater than 6.00 in experiment [1] (setting [5]); less than 4.70 in experiment [2] (Homo sapiens, HeLa); less than 4.70 in experiment [3]; less than 4.70 in experiment [4] (Homo sapiens).
With `CCOC(=O)c1cnc2c(c1)c1ccccc1n2CCCF` [Compound 5-11, 9-(3-fluoropropyl)-9H-pyrido[2,3-b]indole-3-carboxylic acid ethyl ester], the pIC50 is 5.30 to 6.00 in experiment [1] (setting [5]); less than 4.70 in experiment [2] (Homo sapiens, HeLa); less than 4.70 in experiment [3]; less than 4.70 in experiment [4] (Homo sapiens).
On to `CCCn1c2ccc(C(C)=O)cc2c2c(OC)cccc21` [Compound 6-1, 1-(5-Methoxy-9-propyl-9H-carbazol-3-yl)-ethanone], for which the pIC50 was greater than 6.00 in experiment [1] (setting [5]); less than 4.70 in experiment [2] (Homo sapiens, HeLa); less than 4.70 in experiment [3]; less than 4.70 in experiment [4] (Homo sapiens).
Regarding `CCCn1c2ccccc2c2cc(-c3ccno3)ccc21` [Compound 13-1, 3-Isoxazol-5-yl-9-propyl-9H-carbazole], the pIC50 in experiment [1] (setting [5]) was 5.30 to 6.00; in experiment [2] (Homo sapiens, HeLa), less than 4.70; in experiment [3], less than 4.70; in experiment [4] (Homo sapiens) it was less than 4.70.
Consider `FCCCn1c2ccc(-c3nnco3)cc2c2ncccc21` [Compound 10-2], for which the pIC50 in experiment [1] (setting [6]) is 4.70 to 5.30; in experiment [2] (Hela), less than 4.70; in experiment [4], less than 4.70.
For the molecule `CCCn1c2ccccc2c2cc(-c3cnoc3)ccc21` [Compound 2-5], the pIC50 in experiment [1] (setting [5]) is greater than 6.00; in experiment [2] (Homo sapiens, HeLa) it was less than 4.70; in experiment [3], less than 4.70; in experiment [4] (Homo sapiens), less than 4.70.
With `CC(=O)c1cc2c3ccccc3n(CCCF)c2cn1` [Compound 17-1, 1-[9-(3-Fluoropropyl)-9H-beta-carbolin-3-yl]-ethanone], the pIC50 was greater than 6.00 in experiment [1] (setting [5]); less than 4.70 in experiment [2] (Homo sapiens, HeLa); less than 4.70 in experiment [3]; less than 4.70 in experiment [4] (Homo sapiens).
For `CCn1c2ccccc2c2cc(-c3cccs3)ccc21` [Compound 2-6], the pIC50 in experiment [1] (setting [5]) is 5.30 to 6.00; in experiment [2] (Homo sapiens, HeLa), less than 4.70; in experiment [4] (Homo sapiens), less than 4.70.
